Reference: patent US10730886B2, “Compound having effect of inhibiting platelet aggregation and salt thereof, and composition for preventing or treating thrombotic diseases, containing same” (SHIN POONG PHARMACEUTICAL CO., LTD., priority 2015, dated 2020)
Like-named read-outs stand apart in the source and are kept apart here.

How the values were obtained:
[1] = tested on: Human Platelet Rich Plasma (PRP); test: Shear stress-induced platelet aggregation inhibition in human platelet rich plasma (PRP), cone-plate viscometer; assay type: cell-based; conditions: Homo sapiens, Platelet, Table 1 summary bins; concentration and matrix not given; read-out: Inhibitory effect of shear stress-induced platelet aggregation
Procedure: 1-1. Measurement of Platelet Aggregation Inhibitory Effect Using Human Platelet Rich Plasma (PRP)
Blood was collected from the veins of healthy male volunteers who had not taken any medication for more than 2 weeks. All related studies were conducted under the approval of the Seoul National University Institutional Review Board (IRB No. 1305/001-016). During the whole process of study the use of glass containers or glass pipettes was avoided, and the experiments were performed at room temperature. To separate platelet rich plasma (PRP), the blood was collected with 3.2% sodium citrate as an anticoagulant. The whole blood was centrifuged at 150 g for 15 minutes to obtain the supernatant (PRP), and the residue was centrifuged at 2,000 g for 20 minutes to obtain platelet poor plasma (PPP). The number of platelets of the PRP thus obtained was counted with an optical microscope using a hemacytometer. PRP was diluted with PPP so as to include 3×10^8 platelets per 1 ml, and then used in the experiments. PRP was put on a cone-plate viscometer (RotoVisco 1, Thermo Fischer Scientific, USA), and shear stress was applied to the PRP at 37° C. for 3 minutes at a shear rate of 10,800 s^−1. In order to evaluate candidate substances, prior to the induction of platelet aggregation, 598.8 μl of PRP was treated with 1.2 μl of 25 μM candidate substance and incubated at 37° C. for 3 minutes using a thermomixer. After applying the shear stress, 20 μl of PRP was fixed in 280 μl of a suspension buffer containing 0.5% glutaraldehyde (134 mM NaCl, 2.9 mM KCl, 1.0 mM MgCl2.6H2O, 10.0 mM HEPES, 5.0 mM dextrose, 12.0 mM NaHCO3, 0.34 mM Na2HPO4, 0.3% BSA, pH 7.4). Then, the number of single platelets in the suspension was counted using a hemacytometer. The degree of inhibition by the candidate substance was calculated according to the following formula (1). The degree of inhibition was determined by the method described below. No shear stress-applied group served as a control, and only shear stress-applied group served as positive control. Degree of inhibition (%)=[(1−A/B)×100]/[(1−A/C)×100] Formula 1
A: Number of single platelets in the shear stress-applied sample after treatment with candidate substance
B: Number of single platelets in the control group with no shear stress applied
C: Number of single platelets in the positive control group with only shear stress applied

ICR mouse = conditions: male, in vivo, po, 7 days
Procedure: One hour after the last administration, the mice were anesthetized by breathing, and the 4 mm portion from the tail tip of the mice was cut. Then, the tail tip of the mice was immersed in a transparent 15-ml tube containing the pre-prepared 37° C. saline. The time when blood was not spread any more and the bleeding stopped was measured.

Sprague-Dawley rats = test: Bleeding side effect (tail bleeding time) after single oral administration; assay type: in vivo; conditions: rat, tail cut 1 hour after administration
Procedure: Male Sprague-Dawley rats (250 to 300 g) were fasted overnight and then were orally administered with the candidate substances at each concentration. After 1 hour, the rats were anesthetized by intraperitoneal injection of urethane (1.25 g/kg). The 3 mm portion of the tail tip of the rats was cut and carefully wiped every 30 seconds. Bleeding time was measured in […] until no more blood was drawn, and when the bleeding lasted longer than 30 minutes, the bleeding time was recorded as 30 minutes.

[2] = tested on: carotid artery shear stress model; test: Carotid artery shear stress model, amount of thrombus; assay type: in vivo, Sprague-Dawley rats; conditions: rat, twice a day for 3 days after operation
Procedure: Vehicle (0.5% methylcellulose), clopidogrel (8 mg/kg), aspirin (50 mg/kg) or a candidate substance was orally administered to male Sprague-Dawley rats (250 to 300 g). 2 hours after administration, the rats were anesthetized by ketamine/rompun (ketamine/xylazine) cocktail 0.1 ml/100 g. Except for the normal control group, the right cervical skin of the experimental animals was incised to expose the common carotid artery. A surgical tube with a length of 1 mm and an inside diameter of 0.58 mm was inserted into the exposed carotid artery and tied with a single thread. The exposed site and the operation site were treated with an anti-adhesion agent, and then sutured for the animals to recover. After the surgery, vehicle, clopidogrel, aspirin or a candidate substance was orally administered to the rats twice a day for 3 days. On the fourth day, 2 hours after the final administration, urethane (100 mg/300 μl/100 g) was administered intraperitoneally to the rats to induce anesthesia, and the operation site was opened to separate a total of 1 cm of the blood vessel, 5 mm above and 5 mm below the surgical tube. The separated blood vessel was perfused with 0.2 ml of 0.9% saline at 0.3 ml/min to remove the remaining blood, and then maintained in 1 ml of protein lysis buffer (NaOH 2 g, Na2CO3 0.1 g in 500 ml D.W). After collected, the blood vessel thrombus was double-boiled in boiling water together with the protein lysis buffer. 200 μl of the reaction solution (10 ml bicinchoninic acid solution+200 μl 4% aqueous solution of copper sulfate) was added to 10 μl of the heated thrombus, and the mixture was reacted at 37° C. for 30 minutes and quantified with an ELISA reader (562 nm).

[3] = tested on: ADP-induced platelet aggregation, Human PRP; test: ADP-induced platelet aggregation in human PRP (lumi-aggregometer); assay type: cell-based
Procedure: To investigate whether the candidate substance has inhibition selectivity for shear-stress-induced platelet aggregation, which is by a physical stimulus, […] experiment was conducted by activating platelets with physiological agonists—i.e., thrombin, collagen and ADP—to study the inhibitory effect of the candidate substance.
Human PRP (598.8 μl) was treated with 1.2 μl of the candidate substance per concentration (25, 100, 250 μM) and reacted at 37° C. for 3 minutes using a thermomixer. Then, PRP (495 μl) was put in the aggregometer cuvette and preincubated for 1 minute, followed by treatment with platelet aggregation-inducing reagent, thrombin (0.6-0.8 U/ml), collagen (2-5 μg/ml), or ADP (adenosine diphosphate, 15-20 μM) at the minimum concentration causing maximum aggregation. The degree of aggregation of the platelets was measured by a turbidity change using a lumi-aggregometer (Chrono-Log Co., USA). The turbidity of the PRP was considered as 0%, and the turbidity of the PPP was considered as 100%. During the measurement, the reaction mixture was continuously stirred at 1,000 rpm with a silicone-coated magnetic stir bar.

[4] = tested on: human liver cells (HepG2); test: Cytotoxicity in human liver cells HepG2 (WST-1); assay type: cell-based; conditions: HepG2, 40 mM, control
Procedure: 5-3. Evaluation of Cytotoxicity of Candidate Substances Using Human Liver Cells
Experiments were conducted to evaluate cytotoxicity in human liver cells (HepG2). HepG2 cells, which are human liver carcinoma cell lines, were cultured in DMEM (Dulbecco's minimum essential medium) supplemented with 10% FBS (fetal bovine serum) and 1% Penicillin/Streptomycin at 37° C. and 5% CO2. The cells were cultured in a 48 well plate at 4×10^4 cells/well for 24 hours and then used in the experiments. The HepG2 cells were treated with the candidate substances (250 μM) for 18 hours, and then the medium was removed and WST-1 was added, followed by shading for 3 hours for reaction. After 3 hours, the supernatant was taken and absorbance was measured at 450 nm. Cell viability was calculated by comparing the absorbance measured after adding WST-1 to HepG2 cells not treated with the candidate substances. Acetaminophen (40 mM) was used as a control.

Structure (SMILES)	inhibition at 25 µM [1]	other results
O=C(c1ccc(O)c(O)c1)N1CCC(O[C@@H](c2ccc(Cl)cc2)c2ccccn2)CC1 [Example 7, (S)-(4-((4-Chlorophenyl)(pyridin-2-yl)methoxy)piperidin-1-yl)(3,4-dihydroxyphenyl)methanone]	20 to 30%	
O=C(NC1CCSC1=O)c1ccc(O)c(O)c1 (stereo not shown) [Example 4, 3,4-Dihydroxy-N-(2-oxotetrahydrothiophen-3-yl)benzamide]	≥ 30%	
O=C(c1cc(O)ccc1O)N1CCC(OC(c2ccc(Cl)cc2)c2ccccn2)CC1 (stereo not shown) [Example 21, (4-((4-Chlorophenyl)(pyridin-2-yl)methoxy)piperidin-1-yl)(2,5-dihydroxyphenyl)methanone]	20 to 30%	
O=C(c1ccc(O)c(O)c1)N1CCC(c2noc3ccc(F)cc23)CC1 [Example 2, (3,4-Dihydroxyphenyl)(4-(5-fluorobenzo[d]isoxazol-3-yl)piperidin-1-yl)methanone]	20 to 30%	
O=C(NCCc1cccs1)c1cc(O)ccc1O [Example 25, 2,5-Dihydroxy-N-(2-(thiophen-2-yl)ethyl)benzamide]	20 to 30%	
O=C(NCC1CN(Cc2ccc(F)cc2)CCO1)c1cc(O)ccc1O (stereo not shown) [Example 22, N-((4-(4-Fluorobenzyl)morpholin-2-yl)methyl)-2,5-dihydroxybenzamide]	≥ 30%	
COc1cc(C(=O)NCc2c(CO)cnc(C)c2O)ccc1O [Example 19, 4-Hydroxy-N-((3-hydroxy-5-(hydroxymethyl)-2-methylpyridin-4-yl)methyl)-3-methoxybenzamide]	20 to 30%	
O=C(NC1CCSC1=O)c1cc(O)ccc1O (stereo not shown) [Example 26, 2,5-Dihydroxy-N-(2-oxotetrahydrothiophen-3-yl)benzamide]	20 to 30%	
COc1ccc(CCNC(=O)c2cc(O)ccc2O)cc1OC [Example 24, N-(3,4-Dimethoxyphenethyl)-2,5-dihydroxybenzamide]	20 to 30%	
Cc1occc(=O)c1OC(=O)c1ccc(O)c(O)c1 [Example 10, 2-Methyl-4-oxo-4H-pyran-3-yl 3,4-dihydroxybenzoate]	20 to 30%	
COC(=O)[C@H](c1ccccc1Cl)N1CCc2sccc2C1 [Clopidogrel, clopidogrel, reference compound]		Bleeding time (ICR mouse; 15 mg/kg): 35.4 ± 2.9 min; Bleeding time (min) (ICR mouse; 15 mg/kg): exceeded 35 min; bleeding time delayed, times compared with the control group (ICR mouse; 15 mg/kg): about 22 times; Bleeding time (Sprague-Dawley rats; 2.5 μM (so in the source)): 14.3 ± 1.6 min; Bleeding time (Sprague-Dawley rats; 25 μM (so in the source)): 26.8 ± 1.6 min; Amount of thrombus (mg, Mean ± SEM) ([2]; 8 mg/kg oral): 0.067 ± 0.004 mg; Degree of platelet aggregation (%, Mean ± SEM) ([3]; ADP 15-20 μM, compound 40 μM): 18.3 ± 3.4%; platelet aggregation compared with the group treated with ADP only ([3]; positive control, 40 μM): platelet aggregation was inhibited
CC(=O)Nc1ccc(O)cc1 [Acetaminophen, reference compound]		Cell vaibility (%) [4]: 35.3 ± 3.5%
O=C(c1ccc(O)c(O)c1)N1CCC(OC(c2ccc(Cl)cc2)c2ccccn2)CC1 (stereo not shown) [Example 6, (4-((4-Chlorophenyl)(pyridin-2-yl)methoxy)piperidin-1-yl)(3,4-dihydroxyphenyl)methanone]	20 to 30%	
CC(=O)Oc1ccccc1C(=O)O [Aspirin, aspirin, reference compound]		Bleeding time (ICR mouse; 100 mg/kg): 12.3 ± 0.7 min; Bleeding time (min) (ICR mouse; 100 mg/kg): exceeded 12 min; bleeding time delayed, times compared with the control group (ICR mouse; 100 mg/kg): about 7.6 times; Bleeding time (Sprague-Dawley rats; 25 μM (so in the source)): 9.5 ± 0.8 min; Bleeding time (Sprague-Dawley rats; 100 μM (so in the source)): 15.1 ± 0.8 min; Amount of thrombus (mg, Mean ± SEM) ([2]; 50 mg/kg oral): 0.092 ± 0.007 mg
COc1cc(C(=O)N2CCC(OC(c3ccc(Cl)cc3)c3ccccn3)CC2)ccc1O (stereo not shown) [Example 18]	≥ 30%	
CCCc1nn(C)c(C(N)=O)c1NC(=O)c1ccc(O)c(O)c1 [Example 9, 4-(3,4-Dihydroxybenzamido)-1-methyl-3-propyl-1H-pyrazole-5-carboxamide]	20 to 30%	
O=C(c1ccc(O)c(O)c1)N1CCN(c2ccccc2)CC1 [Example 11, (3,4-Dihydroxyphenyl)(4-phenylpiperazin-1-yl)methanone]	≥ 30%	
COC(=O)[C@H](Cc1c[nH]c2ccccc12)NC(=O)c1ccc(O)c(O)c1 [Example 8, (S)-Methyl-2-(3,4-dihydroxybenzamido)-3-(1H-indol-3-yl)propanoate]	20 to 30%	
C#Cc1cccc(NC(=O)c2ccc(O)c(OC)c2)c1 [Example 16, N-(3-Ethynylphenyl)-4-hydroxy-3-methoxybenzamide]	≥ 30%	
CNC(=O)c1cc(Oc2ccc(NC(=O)c3ccc(O)c(OC)c3)cc2)ccn1 [Example 17, 4-(4-(4-Hydroxy-3-methoxybenzamido)phenoxy)-N-methylpicolinamide]	20 to 30%	
O=C(NCC1CN(Cc2ccc(F)cc2)CCO1)c1ccc(O)c(O)c1 (stereo not shown) [Example 3, N-((4-(4-Fluorobenzyl)morpholin-2-yl)methyl)-3,4-dihydroxybenzamide]	≥ 30%	
O=C(NCCCCCCCCCNC(=O)c1ccc(O)c(O)c1)c1ccc(O)c(O)c1 [Example 5, N,N′-(Nonan-1,9-diyl)bis(3,4-dihydroxybenzamide)]	20 to 30%	
